Measured values published in patent US9018192B2, “Unitary pharmaceutical dosage form” (Bristol-Myers Squibb & Gilead Sciences, LLC, priority 2005, dated 2015).
Structures can show the parent of a compound that is named as a salt.

Test: chemical stability of tenofovir DF in the dosage form (stability studies)
Type: physicochemical

compatibility of efavirenz formulation with tenofovir DF (attributed to the surfactant sodium lauryl sulfate in the efavirenz portion): unexpectedly incompatible | stability of tenofovir DF in preparation (increased proportion of excipients, wet granulation of the three API combination): highly unstable | stability of tenofovir DF in combination tablet (three drugs in unitary, essentially homogeneous composition manufactured by wet granulation, stability studies): highly unstable and rapidly degraded
SMILES: CC(C)OC(=O)OCOP(=O)(CO[C@H](C)Cn1cnc2c(N)ncnc21)OCOC(=O)OC(C)C [tenofovir DF, tenofovir disoproxil fumarate]
